How the values were obtained:
Assay in all cases: relative viability (nuclei count vs DMSO), 5 days (fraction); higher = more cells survive
[1] = tested on: HCC-78
Summary of the method: (§1)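 Lung cancer cell lines in 1536-well plates got either a single drug or a fixed anchor-drug dose together with five library-drug doses (not always all listed) in √10 steps, by pin tool, on the day after seeding. Nuclei were counted after 5 days, and relative viability is the treated-to-vehicle ratio of nuclei counts. Values are medians of duplicate plates.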

[2] = tested on: NCI-H727
Summary of the method: as §1

[3] = tested on: NCI-H2085
Summary of the method: as §1

[4] = tested on: NCI-H2405
Summary of the method: as §1

[5] = tested on: NCI-H2023
Summary of the method: as §1

[6] = tested on: HCC-15
Summary of the method: as §1

[7] = tested on: HCC-44
Summary of the method: as §1

[8] = tested on: NCI-H1395
Summary of the method: as §1

[9] = tested on: NCI-H661
Summary of the method: as §1

[10] = tested on: UMC-11
Summary of the method: as §1

[11] = tested on: NCI-H1437
Summary of the method: as §1

[12] = tested on: HCC-827
Summary of the method: as §1

O=C(O)CCCCC(CCSCc1ccccc1)SCc1ccccc1 (configuration not stated) [CPI-613] + CC(=O)Nc1cccc(-n2c(=O)n(C3CC3)c(=O)c3c(Nc4ccc(I)cc4F)n(C)c(=O)c(C)c32)c1 [Trametinib] (partner 0.02 µM) showed a relative viability ([1]; first compound 158.11 µM) of 0.714, a relative viability ([1]; first compound 500 µM) of 0.716 and a relative viability ([2]; first compound 5 µM) of 0.393. The relative viability ([2]; first compound 15.81 µM) was 0.389, the relative viability ([2]; first compound 50 µM) was 0.396 and the relative viability ([2]; first compound 158.11 µM) was 0.374. The relative viability ([2]; first compound 500 µM) was 0.339, the relative viability ([3]; first compound 5 µM) was 0.664 and the relative viability ([3]; first compound 15.81 µM) was 0.555. For the same molecule, the relative viability ([3]; first compound 50 µM) was 0.6, the relative viability ([3]; first compound 158.11 µM) was 0.216 and the relative viability ([3]; first compound 500 µM) was 0.12. For the same molecule, the relative viability ([4]; first compound 5 µM) was 0.633, the relative viability ([4]; first compound 15.81 µM) was 0.633 and the relative viability ([4]; first compound 50 µM) was 0.619. It also gave a relative viability ([4]; first compound 158.11 µM) of 0.494, a relative viability ([4]; first compound 500 µM) of 0.479 and a relative viability ([5]; first compound 5 µM) of 0.57. The relative viability ([5]; first compound 15.81 µM) was 0.605, the relative viability ([5]; first compound 50 µM) was 0.499 and the relative viability ([5]; first compound 158.11 µM) was 0.0445. The relative viability ([5]; first compound 500 µM) was 0.0048, the relative viability ([6]; first compound 5 µM) was 0.387 and the relative viability ([6]; first compound 15.81 µM) was 0.363. The relative viability ([6]; first compound 50 µM) was 0.363, the relative viability ([6]; first compound 158.11 µM) was 0.167 and the relative viability ([6]; first compound 500 µM) was 0.0261. The relative viability ([7]; first compound 5 µM) was 1.04, the relative viability ([7]; first compound 15.81 µM) was 1.03 and the relative viability ([7]; first compound 50 µM) was 1.08. The relative viability ([7]; first compound 158.11 µM) was 0.649, the relative viability ([7]; first compound 500 µM) was 0.62 and the relative viability ([8]; first compound 5 µM) was 0.901. The relative viability ([8]; first compound 15.81 µM) was 1.05, the relative viability ([8]; first compound 50 µM) was 0.928 and the relative viability ([8]; first compound 158.11 µM) was 1.04. The relative viability ([8]; first compound 500 µM) was 0.917, the relative viability ([9]; first compound 5 µM) was 0.528 and the relative viability ([9]; first compound 15.81 µM) was 0.532. It also gave a relative viability ([9]; first compound 50 µM) of 0.541, a relative viability ([9]; first compound 158.11 µM) of 0.263 and a relative viability ([9]; first compound 500 µM) of 0.133. For the same molecule, the relative viability ([10]; first compound 5 µM) was 0.632, the relative viability ([10]; first compound 15.81 µM) was 0.703 and the relative viability ([10]; first compound 50 µM) was 0.437. For the same molecule, the relative viability ([10]; first compound 158.11 µM) was 0.495, the relative viability ([10]; first compound 500 µM) was 0.0937 and the relative viability ([11]; first compound 5 µM) was 0.49. It also gave a relative viability ([11]; first compound 15.81 µM) of 0.431, a relative viability ([11]; first compound 50 µM) of 0.467 and a relative viability ([11]; first compound 158.11 µM) of 0.0999. It also gave a relative viability ([11]; first compound 500 µM) of 0.0568, a relative viability ([12]; first compound 5 µM) of 0.518 and a relative viability ([12]; first compound 15.81 µM) of 0.555. For the same molecule, the relative viability ([12]; first compound 50 µM) was 0.571, the relative viability ([12]; first compound 158.11 µM) was 0.518 and the relative viability ([12]; first compound 500 µM) was 0.483.

From the supplement of paper PMC10307832
